Publication PMC6271077, “Synthesis, Anticancer and Antibacterial Activity of Salinomycin N-Benzyl Amides” (Molecules, 2014)
Values after ≈ are worked out from the molar mass of the structure shown. Like-named read-outs stand apart in the source and are kept apart here.

What was measured:
[1] = tested on: HL-60; assay: Antiproliferative MTT assay, HL-60; format: cell-based, human; conditions: for IC50: Homo sapiens, read-out: IC50 HL-60; for SI HL-60: SI = IC50 BALB/3T3 / IC50 HL-60
From the text: (§1) Four human cancer cell lines and one normal cell line were used to evaluate anticancer activity of SAL and its N-benzyl amides: human acute promyelocytic leukemia (HL-60) and its vincristine resistant subline (HL-60/vinc), human colon adenocarcinoma cell lines sensitive (LoVo) and resistant to doxorubicin (LoVo/dx) as well as also normal murine embryonic fibroblast cell line (BALB/3T3). The BALB/3T3 cell line was purchased from the American Type Culture Collection (ATCC Rockville, MD, USA), HL-60 cell line from European Type Culture Collection by courtesy of Professor Spik and Dr Mazurier (Laboratory of Biological Chemistry USTL, Lille, France) and HL-60/vinc, LoVo and LoVo/dx by courtesy of Prof. E. Borowski (Technical University of Gdańsk, Gdańsk, Poland). All the cell lines are maintained in the Institute of Immunology and Experimental Therapy (IIET), Wrocław, Poland.
(§2) Human leukemia cells were cultured in ISCOVE medium (IIET, Wroclaw, Polond) containing 10% fetal bovine serum and 2 mM L-glutamine (Sigma Aldrich) and 1 µg/100 mL […] for HL-60/vinc (Sigma Aldrich). Human colon adenocarcinoma cell lines were cultured in mixture of OptiMEM and RPMI 1640 (1:1) medium (IIET) supplemented with 5% fetal bovine serum (Thermo Fisher Scientific, Waltham, MA, USA), 2 mM L-glutamine, 1 mM sodium pyruvate (Sigma Aldrich) and 10 µg/100 mL doxorubicin for LoVo/dx (Sigma Aldrich). Murine embryonic fibroblast cells were cultured in Dulbecco medium (Gibco, Darmstadt, Germany) supplemented with 10% fetal bovine serum (Thermo Fisher Scientific) and 2 mM L-glutamine (Sigma Aldrich). All culture media contained antibiotics: 100 U/mL penicillin (Sigma Aldrich) and 100 µg/mL streptomycin (Polfa-Tarchomin, City, Poland). All cell lines were cultured during entire experiment in humid atmosphere at 37 °C and 5% CO2.
(§3) Twenty four hours before adding the tested compounds all cell lines were seeded in 96-well plates (Sarstedt, Nümbrecht, Germany) in appropriate media with 10^4 cells per well. All cell lines were exposed to each tested agent at four different concentrations from the range 100 to 0.1 µg/mL for 72 h. The cells were also exposed to the reference drugs: cisplatin (Accord, London, UK) and doxorubicin hydrochloride (Fluka, St. Louis, MO, USA). Additionally, all cell lines were exposed to DMSO (the solvent used for tested compounds, Sigma Aldrich) at the concentrations corresponding to those in the tested agent dilutions. For adherent cells sulphorodamine B assay was performed and MTT assay for leukemia cells.
(§4) Proliferation inhibition of leukemia cells by tested compounds was measured by means of MTT assay. Thus, 20 µL of 3-(4,5-dimethylthiazol-2-yl)-2,5-diphenyl tetrazolium bromide solution (Sigma Aldrich) were added to each well and plates were left in cell incubator for 4 h to allow the cells to metabolize yellow MTT to blue formazan. Then, the lysing mixture consisting of 225 mL dimethylformamide, 67.5 g sodium dodecyl sulfate (both from Sigma Aldrich) and 275 mL of distilled water was added in 80 µL volume per well. Plates were incubated for 24 h for the formazan crystals to be released from cells, dissolved and then absorbance of each well was read at Synergy H4 photometer (BioTek Instruments) at 570 nm wavelength.
(§5) Results are presented as mean IC50 (concentration of the tested compound that inhibits cell proliferation by 50%) ± standard deviation. IC50 values were calculated in Cheburator 1.0.2, Dmitry Nevozhay software for each experiment. Compounds at each concentration were tested in triplicates in single experiment and each experiment was repeated at least three times independently. The IR was defined as the ratio of IC50 for a given compound calculated for resistant cell line to that measured for its parental drug sensitive cell line (Table 4).

[2] = tested on: LoVo; assay: Antiproliferative SRB assay, LoVo; format: cell-based, human; conditions: for IC50: Homo sapiens, LoVo, 72 h, read-out: IC50 LoVo; for SI LoVo: SI = IC50 BALB/3T3 / IC50 LoVo
From the text: as §1, §2, §3
(§6) After 72 h of incubation with tested compounds the cells were fixed in situ by gently adding of 50 µL per well of cold 50% trichloroacetic acid TCA (Avantor Performance Materials, City, Poland) and were incubated at 4 °C for 1 h. Then the wells were washed four times with water and air-dried. Next, 50 µL of 0.2% solution of sulphorodamine B (Sigma Aldrich) in 1% acetic acid (Avantor Performance Materials) were added to each well and plates were incubated at room temperature for 0.5 h. After incubation time, unbound dye was removed by washing plates four times with 1% acetic acid, whereas the stain bound to cells was solubilized with 150 µL of 10 mM Tris base (Sigma Aldrich). Absorbance of each solution was read at Synergy H4 photometer (BioTek Instruments, Winooski, VT, USA) at 540 nm wavelength.
as §5

[3] = tested on: LoVo/dx; assay: Antiproliferative SRB assay, LoVo/dx; format: cell-based, human; conditions: for IC50: Homo sapiens, LoVo/DX, 72 h, read-out: IC50 LoVo/dx; for IR LoVo/DX: IR = IC50 LoVo/dx / IC50 LoVo; for SI LoVo/DX: SI = IC50 BALB/3T3 / IC50 LoVo/dx
From the text: as §1, §2, §3, §6, §5

[4] = tested on: M. tuberculosis standard H37Rv strain; assay: Tuberculostatic activity, test-tube dilution; format: cell-based; conditions: Mycobacterium tuberculosis, read-out: MIC M. tuberculosis Standard H37Rv Strain
[5] = tested on: M. tuberculosis isoniazid-sensitive strain (spec. 192); assay: Tuberculostatic activity, test-tube dilution; format: cell-based; conditions: Mycobacterium tuberculosis, read-out: MIC M. tuberculosis Isoniazid-Sensitive Strain
[6] = tested on: HL-60/vinc; assay: Antiproliferative MTT assay, HL-60/vinc; format: cell-based, human; conditions: for IC50: Homo sapiens, HL60/vinc, 72 h, read-out: IC50 HL-60/vinc; for IR HL-60/vinc: IR = IC50 HL-60/vinc / IC50 HL-60; for SI HL-60/vinc: SI = IC50 BALB/3T3 / IC50 HL-60/vinc
From the text: as §1, §2, §3, §4, §5

[7] = tested on: HL-60, HL-60/vinc, LoVo, LoVo/dx; assay: Antiproliferative assays, all four cancer cell lines (range given); format: cell-based; conditions: Homo sapiens, read-out: IC50 (range over the cancer cell lines)
From the text: as §1, §2, §3, §6
Proliferation inhibition of leukemia cells by tested compounds was measured by means of MTT assay. […]

[8] = tested on: standard and "wild" strains of M. tuberculosis; assay: Tuberculostatic activity, all M. tuberculosis strains (overall); format: cell-based; conditions: Mycobacterium tuberculosis, H37RV, read-out: MIC (over M. tuberculosis strains)
[9] = HL-60, 72 h, MTT, mean ± SD, NA: not active in concentrations used (up to 100 µg/mL)

SMILES	IC50 ([1]; HL-60, 72 h)	SI HL-60 [1]	IC50 [2]	SI LoVo [2]	IC50 [3]	IR LoVo/DX [3]	SI LoVo/DX [3]	MIC [4]	MIC [5]	IC50 [1, 9]	IC50 [6]	IR HL-60/vinc [6]	SI HL-60/vinc [6]	IC50 ([2]; SRB, mean ± SD)	IC50 [7]	MIC [8]	IC50 ([7]; range over HL-60, HL-60/vinc, LoVo, LoVo/dx)	MIC ([4]; Youmans' medium, 37 °C, tested 3.1-100 µg/mL)	MIC ([5]; wild strain spec. 192, Youmans' medium, 37 °C, tested 3.1-100 µg/mL)
CCC(C(=O)NCc1cccc(F)c1)C1CCC(C)C(C(C)C(O)C(C)C(=O)C(CC)C2OC3(C=CC(O)C4(CCC(C)(C5CCC(O)(CC)C(C)O5)O4)O3)C(C)CC2C)O1 (stereo not shown) [F-m]	65 ± 35.3 µM	0.10	13.5 ± 0.28 µM	0.48	3.91 ± 2.1 µM	0.29	1.65	100 µg/mL (≈ 117 µM)	> 100 µg/mL	–	–	–	–	–	–	–	–	–	–
CC[C@H](C(=O)NCc1ccc(Br)cc1)C1CC[C@H](C)C([C@@H](C)[C@H](O)[C@H](C)C(=O)[C@H](CC)C2O[C@]3(C=C[C@@H](O)C4(CC[C@@](C)(C5CC[C@](O)(CC)[C@H](C)O5)O4)O3)[C@H](C)C[C@@H]2C)O1 (stereo partly shown) [Br-p]	–	0.41	–	0.52	4.97 ± 2.76 µM	0.30	1.69	50 µg/mL (≈ 54.4 µM)	50 µg/mL (≈ 54.4 µM)	20.7 ± 4.66 µM	33.5 ± 10.9 µM	1.62	0.25	16.3 ± 0.96 µM	–	–	–	–	–
CC[C@H](C(=O)NCc1cccc(Cl)c1)C1CC[C@H](C)C([C@@H](C)[C@H](O)[C@H](C)C(=O)[C@H](CC)C2O[C@]3(C=C[C@@H](O)C4(CC[C@@](C)(C5CC[C@](O)(CC)[C@H](C)O5)O4)O3)[C@H](C)C[C@@H]2C)O1 (stereo partly shown) [Cl-m]	–	4.52	–	1.49	2.96 ± 0.99 µM	0.25	5.86	100 µg/mL (≈ 114 µM)	> 100 µg/mL	3.83 ± 0.09 µM	6.59 ± 1.22 µM	1.72	2.63	11.6 ± 5.12 µM	–	–	–	–	–
CC[C@H](C(=O)NCc1ccc(Cl)cc1)C1CC[C@H](C)C([C@@H](C)[C@H](O)[C@H](C)C(=O)[C@H](CC)C2O[C@]3(C=C[C@@H](O)C4(CC[C@@](C)(C5CC[C@](O)(CC)[C@H](C)O5)O4)O3)[C@H](C)C[C@@H]2C)O1 (stereo partly shown) [Cl-p, p-chlorobenzyl amide of salinomycin]	–	0.21	–	0.40	16.6 ± 4.81 µM	0.86	0.46	100 µg/mL (≈ 114 µM)	100 µg/mL (≈ 114 µM)	36.2 ± 3.03 µM	46.8 ± 12.5 µM	1.29	0.16	19.3 ± 4.03 µM	–	–	–	–	–
CCC(C(=O)NCc1ccccc1F)C1CCC(C)C(C(C)C(O)C(C)C(=O)C(CC)C2OC3(C=CC(O)C4(CCC(C)(C5CCC(O)(CC)C(C)O5)O4)O3)C(C)CC2C)O1 (stereo not shown) [F-o]	3.63 ± 0.14 µM	1.64	3.49 ± 0.59 µM	1.71	2.32 ± 0.69 µM	0.66	2.57	100 µg/mL (≈ 117 µM)	50 µg/mL (≈ 58.3 µM)	–	4.44 ± 1.73 µM	1.22	1.34	–	2.32 to 6.84 µM	–	–	–	–
CC[C@H](C(=O)NCc1cccc(Br)c1)C1CC[C@H](C)C([C@@H](C)[C@H](O)[C@H](C)C(=O)[C@H](CC)C2O[C@]3(C=C[C@@H](O)C4(CC[C@@](C)(C5CC[C@](O)(CC)[C@H](C)O5)O4)O3)[C@H](C)C[C@@H]2C)O1 (stereo partly shown) [Br-m]	–	2.74	–	1.77	3.39 ± 0.15 µM	0.65	2.73	> 100 µg/mL	> 100 µg/mL	3.38 ± 1.09 µM	7.08 ± 1.73 µM	2.09	1.31	5.23 ± 0.22 µM	–	> 100 µg/mL	–	–	–
CC[C@H](C(=O)NCc1ccccc1Cl)C1CC[C@H](C)C([C@@H](C)[C@H](O)[C@H](C)C(=O)[C@H](CC)C2O[C@]3(C=C[C@@H](O)C4(CC[C@@](C)(C5CC[C@](O)(CC)[C@H](C)O5)O4)O3)[C@H](C)C[C@@H]2C)O1 (stereo partly shown) [Cl-o]	–	1.89	–	1.56	2.91 ± 0.22 µM	0.76	2.06	100 µg/mL (≈ 114 µM)	50 µg/mL (≈ 57.2 µM)	3.18 ± 0.69 µM	3.99 ± 1.47 µM	1.25	1.50	3.85 ± 0.05 µM	–	–	2.32 to 6.84 µM	–	–
NNC(=O)c1ccncc1 [Isoniazid, isoniazid, reference compound]	–	–	–	–	–	–	–	–	–	–	–	–	–	–	–	3.1 to 6.25 µg/mL (≈ 22.6 to 45.6 µM)	–	< 3.1 µg/mL	< 3.1 µg/mL
CCC(C(=O)NCc1ccccc1[N+](=O)[O-])C1CCC(C)C(C(C)C(O)C(C)C(=O)C(CC)C2OC3(C=CC(O)C4(CCC(C)(C5CCC(O)(CC)C(C)O5)O4)O3)C(C)CC2C)O1 (stereo not shown) [NO2-o]	3.47 ± 0.44 µM	2.75	3.81 ± 0.18 µM	2.51	2.45 ± 0.26 µM	0.64	3.90	50 µg/mL (≈ 56.5 µM)	50 µg/mL (≈ 56.5 µM)	–	6.84 ± 2.04 µM	1.97	1.40	–	2.32 to 6.84 µM	–	–	–	–
CC[C@H](C(=O)NCc1cccc([N+](=O)[O-])c1)C1CC[C@H](C)C([C@@H](C)[C@H](O)[C@H](C)C(=O)[C@H](CC)C2O[C@]3(C=C[C@@H](O)C4(CC[C@@](C)(C5CC[C@](O)(CC)[C@H](C)O5)O4)O3)[C@H](C)C[C@@H]2C)O1 (stereo partly shown) [NO2-m]	–	2.84	–	1.54	3.26 ± 0.84 µM	0.20	7.64	100 µg/mL (≈ 113 µM)	100 µg/mL (≈ 113 µM)	8.78 ± 1.73 µM	24.6 ± 8 µM	2.80	1.01	16.1 ± 1.61 µM	–	–	–	–	–
